Tested on: 123 cells (CHO cells expressing recombinant human GPIb-IX and integrin αIIbβ3)
Test: vWF-induced GPIb-IX-mediated activation of integrin αIIbβ3 (Oregon green-labeled fibrinogen binding, flow cytometry)
Type: cell-based, Chinese Hamster
Conditions: PKG-transfected 123 cells, 12 μg/ml vWF, 1 mg/ml ristocetin, FIGS. 1B, 1C
Description: Human PKG Iβ cDNA was cloned by RT-PCR, using human platelet mRNA as templates. Sequence of the human PKG Iβ cDNA fragment matches the published sequence. Cloning of human PKG Iα cDNA was described previously. PKG Iα or Iβ in pCDNA3.1/Zeo+vector was transfected into 123 cells (CHO cells expressing recombinant human CPIb-IX and integrin αIIbβ3 using Lipofectamine plus (BRL). Expression of PKG was assessed by Western blotting with an antihuman PKG I antibody (Calbiochem). The kinase activity of the expressed enzymes was measured in cell homogenates using BPDEtide (Calbiochem) as substrate as detailed previously. vWF-induced GPIb-IX-mediated activation of integrin αIIbβ3 was examined by flow cytometry analysis of Oregon green-labeled fibrinogen binding to integrln αIIbβ3 as described previously. Briefly, cells were detached from tissue culture plate using 0.5 mM EDTA, washed at 4° C. and resuspended in modified Tyrode's solution. Cells then were incubated with Oregon green-labeled fibrinogen (20 μg/ml) in the presence of ristocetin and vWF at 22° C. for 30 minutes, and analyzed by FACScalibur flow cytometer. Nonspecific binding of fibrinogen was estimated by measuring fibrinogon binding in the presence of a specific integrin inhibitor RGDS (1 mM) (see Refs. 13 and 43-45).
In FIG. 1A, CHO cells expressing GPLb-JX and integrin αIIbβ3 (123 cells) were transfected with cDNA encoding PKGIα or vector. Expression of PKG Ia in 123 cells was detected by Western blotting with an anti-human PKG I antibody (Insert), and recombinant PKG activity was determined in the absence or presence of 20 μM 8-bromo-cGMP as previously described. Results are expressed as mean +SD (n=3). For FIGS. 1B and 1C, reconstitution of GPIb-IX-mediated integrin activation in CHO cells was published (see Ref. 13). […] Cells were analyzed by flow cytometry. Quantitative results from three experiments are expressed as fibrinogen binding indices (total bound fluorescence (Fg)/nonspecifically bound fluorescence (Fg+RGDS)), and shown in FIG. 1B (mean ±SD).

Nc1nc2c(nc(Br)n2[C@@H]2O[C@@H]3COP(=O)(O)O[C@H]3[C@H]2O)c(=O)[nH]1 [8-bromo-cGMP]
vWF-induced fibrinogen binding to integrin: further increased | vWF-induced fibrinogen binding to integrin (row): dramatically increased
